Source: paper PMC3771382 (ChemMedChem, 2012)

Legend:
human GLP-1R = human GLP-1R (Homo sapiens, UniProt P43220); assay: RIP1-CRE-Luc luciferase reporter; format: cell-based; conditions: HEK-GLP-1R cells transfected with RIP1-CRE-Luc; 4 h exposure
[1] = system: dipeptidyl peptidase IV (DPP-IV); conditions: ref [8],[9]; cited from earlier work
[2] = ref [8],[9]; cited from earlier work

Sequence of human GLP-1R (P43220 24-463): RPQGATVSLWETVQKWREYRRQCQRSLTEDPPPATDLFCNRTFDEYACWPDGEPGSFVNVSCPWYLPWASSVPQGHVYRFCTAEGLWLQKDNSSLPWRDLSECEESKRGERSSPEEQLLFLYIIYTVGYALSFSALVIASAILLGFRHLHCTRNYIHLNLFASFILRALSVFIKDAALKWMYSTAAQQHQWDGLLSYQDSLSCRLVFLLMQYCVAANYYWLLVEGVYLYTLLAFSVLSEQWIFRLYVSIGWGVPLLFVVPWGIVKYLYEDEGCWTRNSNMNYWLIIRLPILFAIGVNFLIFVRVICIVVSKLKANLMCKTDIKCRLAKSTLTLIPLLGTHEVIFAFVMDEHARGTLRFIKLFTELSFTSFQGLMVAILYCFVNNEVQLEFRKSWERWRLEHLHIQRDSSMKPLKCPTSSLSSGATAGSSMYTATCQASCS

Row | Compound | luciferase response (in words) (human GLP-1R) | t1/2, degradation by DPP-IV [1] [min] | fraction of secreted GLP-1 surviving intact to the systemic circulation [2]
1 | cyanocobalamin [B12] | did not produce any response |  | 
2 | glucagon-like peptide-1 (7–36) amide [GLP-1] |  | 1 to 2 | 10–15%
3 | CC[C@H](C)[C@H](NC(=O)[C@H](Cc1ccccc1)NC(=O)[C@H](CCC(=O)O)NC(=O)[C@H](CCCCNC(=O)OC[C@H]1O[C@H](n2cnc3cc(C)c(C)cc32)[C@H](O)[C@@H]1OP(=O)(O)O[C@H](C)CNC(=O)CC[C@@]1(C)/C2=C(\C)C3=N/C(=C\C4=NC(=C(/C)C5=N[C@@](C)([C@H](N2)[C@@H]1CC(N)=O)[C@@](C)(CC(N)=O)[C@@H]5CCC(N)=O)/[C@@](C)(CC(N)=O)[C@@H]4CCC(N)=O)C(C)(C)[C@@H]3CCC(N)=O)NC(=O)[C@H](C)NC(=O)[C@H](C)NC(=O)[C@H](CCC(N)=O)NC(=O)CNC(=O)[C@H](CCC(=O)O)NC(=O)[C@H](CC(C)C)NC(=O)[C@H](Cc1ccc(O)cc1)NC(=O)[C@H](CO)NC(=O)[C@H](CO)NC(=O)[C@@H](NC(=O)[C@H](CC(=O)O)NC(=O)[C@H](CO)NC(=O)[C@@H](NC(=O)[C@H](Cc1ccccc1)NC(=O)[C@@H](NC(=O)CNC(=O)[C@H](CCC(=O)O)NC(=O)[C@H](C)NC(=O)[C@@H](N)Cc1c[nH]cn1)[C@@H](C)O)[C@@H](C)O)C(C)C)C(=O)N[C@@H](C)C(=O)N[C@@H](Cc1c[nH]c2ccccc12)C(=O)N[C@@H](CC(C)C)C(=O)N[C@H](C(=O)N[C@@H](CCCNC(=N)N)C(=O)NCC(=O)N[C@@H](CCCNC(=N)N)C(N)=O)C(C)C [compound 1] | concentration-dependent response |  | 
